Data reported in patent US20090263492A1, “Diagnostic Methods and Genetic Markers for Alzheimer Disease” (priority 2006, published 2009).
“Also recorded” adds a separate entry of the source.

Legend:
Assay type in all cases: cell-based, human
[1] = tested on: Toll-like receptor (TLR) RNA's (TLR1-10); test: qPCR of TLR transcription in PBMC's from AD patients cultured with Aβ and test agent; conditions: for up-regulation of TLR1-10 RNA: PBMCs from one AD patient (patient D, FIG. 1), Aβ plus agent overnight
Description: 10 million PBMC's each of four AD patients (A, B, C, D) were treated overnight with no addition, Aβ (A, B, C, D; black bars) or with Aβ and bisdemethoxycurcumin (D, striped bar). Control subjects's (M, N, O) PBMC's were treated with no addition or Aβ (open bars). RNA was extracted and tested by qPCR, and the TLR ratio was determined as described in the Methods. The significance of differences between patients and controls (by Mann-Whitney test) are: TLR1 0.05; TLR2 0.05; TLR3 0.05; TLR4 0.08; TLR5 0.05; TLR6 0.077; TLR7 0.08; TLR8 0.05; TLR9 0.08; TLR10 0.05. The graphs show changes in receptors on 2-fold (log 2) scale.
(§1) RNA Isolation and qPCR. RNA was isolated as above from PBMC's (10 million) of each subject, which were cultured overnight with or without Aβ (2 μg/ml); and cDNA was synthesized using the iSCRIPT cDNA Synthesis Kit. The expression levels of the genes of interest were tested by qPCR on a real-time PCR detector and normalized to the levels of the housekeeping gene 36B4 with the following primers: […]
SYBR Green reactions were carried out with the IQ SYBR Green mix. Reactions were run on a Continuous Fluorescence detector and analyzed. The relative quantities of the gene tested per sample were calculated against 36B4 using the ΔΔC(T) formula as previously described. The results are expressed as log [MGAT (or TLR) RNA (with Aβ)/MGAT (or TLR) RNA (without Aβ)] for each specimen. For evaluation of curcumins or curcumin analogs the above assay was used. […] The expression levels of Mgat3 or TLR transcription was quantified and normalized to the levels of housekeeping genes and compared to cells treated with curcumin or analogs with or without Aβ vs. untreated cells. The amount of Mgat3 (or TLR) RNA with Aβ and test agent/Mgat3 (or TLR) RNA withal alone)] for each cell preparation in the presence of test agent was determined. […]
Curcumins. […] The expression levels of Mgat3 or TLR transcription was quantified and normalized to the levels of housekeeping genes and compared to cells treated with curcumin or analogs without Aβ. […]

Mgat3 transcription = test: qPCR of Mgat3 transcription in PBMC's from AD patients cultured with Aβ and test agent
Description: as §1
SYBR Green reactions were carried out with the IQ SYBR Green mix. Reactions were run on a Continuous Fluorescence detector and analyzed. The relative quantities of the gene tested per sample were calculated against 36B4 using the ΔΔC(T) formula as previously described. The results are expressed as log [MGAT (or TLR) RNA (with Aβ)/MGAT (or TLR) RNA (without Aβ)] for each specimen. For evaluation of curcumins or curcumin analogs the above assay was used. Curcumins (0.1 uM) were added to PBMC's from AD patients cultured overnight with ±Aβ as above. After 2 hours of incubation with the curcumin or analog, RNA was isolated and cDNA was synthesized as above. The expression levels of Mgat3 or TLR transcription was quantified and normalized to the levels of housekeeping genes and compared to cells treated with curcumin or analogs with or without Aβ vs. untreated cells. The amount of Mgat3 (or TLR) RNA with Aβ and test agent/Mgat3 (or TLR) RNA withal alone)] for each cell preparation in the presence of test agent was determined. The ratio was used to determine the potency of the agent tested. Potent compounds had elevated ratios (>1.5) and were used to rank the relative activity of each test agent (Table 2).
Curcumins. […] Crude natural product derived materials (i.e., curcuminoids) enhance phagocytosis of Aβ by macrophages from AD patients in approximately 50% of the cases examined. […] The material was purified to near homogeneity and identified by LCMS as bisdesmethoxycurcumin on the basis of its molecular ion and fragmentation pattern. To verify the biological activity of this minor constituent, bisdesmethoxycurcumin was chemically synthesized and tested in the phagocytosis and transcription assays described above (see Example 4). Compared with curcumin, both the bisdesmethoxycurcumin material isolated by chromatography and the chemically synthesized bisdesmethoxycurcumin material optimally stimulated phagocytosis at 0.1 μM. To determine whether functional improvement would be accompanied by biochemical changes, we tested transcriptional up-regulation of MGA T3 and TLR's in PBMC's from AD patients and controls in the presence of Aβ with bisdesmethoxycurcumin (0.1 μM) in comparison to Aβ alone. […] Thus, curcumins (0.1 uM) were added to PBMC's from AD patients cultured overnight with Aβ as above. After 2 hours of incubation, RNA was isolated and cDNA was synthesized. The expression levels of Mgat3 or TLR transcription was quantified and normalized to the levels of housekeeping genes and compared to cells treated with curcumin or analogs without Aβ. The amount of Mgat3 (or TLR) RNA with test agent and Aβ)/Mgat3 (or TLR) RNA (with Aβ alone)] for each cell preparation in the presence of test agent was determined. The ratio was used to determine the potency of the agent tested. Potent compounds had elevated ratios (>1.5) and were used to rank the relative activity (Table 2).
Mgat3 and TLR transcription in cells from AD and control patients. We tested by qPCR Mgat3 and/0or TLR transcription in cells from AD patients and compared the results to those obtained from age-matched controls (Table 2). As discussed above, activation or up-regulation of macrophage Mgat3 or TLR's results in many functional outcomes, including the enhancement of […] and removal of Aβ, increased apoptosis, secretion of inflammatory cytokines, and other anti-AD antimicrobial activities. […] Thus, the ratio of Mgat3 or TLR transcription upon Aβ stimulation of AD versus control PBMCs provides an indicator and sensitive method to test the in vitro efficacy of drug candidates. […]

[2] = tested on: TLR2, TLR3 and TLR4 on monocytes; test: Flow cytometry of TLR expression on monocytes of PBMCs from an AD patient
[3] = tested on: macrophages of AD patients; test: Phagocytosis of FITC-amyloid-beta (1-42) by macrophages of AD patients
Source text: Peripheral blood mononuclear cells (PBMC's) and macrophages. AD patients were recruited at the time of enrollment in a double-blind study of curcumin Complex 3 in progress at UCLA. The diagnostic criteria for AD satisfied the National Institute of Neurological and Communicative Disorders and the AD and Related Disorders Association criteria for probable Alzheimer's disease. Normal age-matched control subjects were recruited. PBMC's were isolated by the Ficoll Hypaque gradient technique from venous blood. To prepare macrophage slide cultures, 50,000 PBMC's were cultured in each well of an 8-chamber polystyrene vessel glass slide in Iscove's medium with 10% autologous serum until differentiated into adherent macrophages (7-14 days).
Phagocytosis assay and confocal microscopy. Macrophages were exposed to FITC-amyloid-beta (1-42) (2 μg/ml) overnight, fixed with 4% paraformaldehyde, permeabilized with 0.1% Triton X-100, blocked with 1% BSA in PBS and stained with Rab 5 or EEA1 antibodies by indirect immunofluorescence; lysosomes were stained intravitally by the Lyso-Tracker probe; macrophages were stained using anti-CD68; neurons were stained using anti-NeuN. The preparations were examined using fluorescence and confocal microscopy.
Ability of monocytes to clear Aβ in the brain. Co-culture of freshly isolated monocytes with sections of AD frontal lobe to test the ability of monocytes to clear Aβ in the brain was done. One third of control monocytes became saturated with Aβ in 2 days and 100% in 4 days. […] Apoptosis of macrophages treated with Aβ was done with the SR-VAD-FMK polycaspase assay. Differentiated macrophages were treated with curcuminoids or analogs in the medium overnight and were then exposed to FITC-Aβ (1-42) to 2.5 μg/ml, incubated for 24 or 48 h and examined by fluorescence or confocal microscopy.
Curcuminoids reverse defective phagocytosis of amyloid-beta by macrophages of individual AD patients. […] Macrophages were visualized using anti-CD68 or fluorescent phalloidin with a fluorescence microscope.

[4] = 0.1 μM, PBMC's from AD patients

O=C(C=Cc1ccc(O)cc1)C=C(O)C=Cc1ccc(O)cc1 [Compound 5a, 5-Hydroxy-1,7-bis-(4-hydroxy-phenyl)-hepta-1,4,6-trien-3-one]
transcription of TLRs with Aβ and agent in comparison to Aβ alone [1, 4]: up-regulated in all four patients examined
up-regulation of TLR1-10 RNA ([1]; listed as Bisdemethoxycurcumin): all 10 TLRs were up-regulated
up-regulation of TLR1-10 RNA ([1]; listed as bisdemethoxycurcumin): up-regulation
transcription of MGAT3 with Aβ and agent in comparison to Aβ alone (Mgat3 transcription; [4]): up-regulated in all four patients examined
fold induction at 0.1 µM (Mgat3 transcription; Homo sapiens, curcumins 0.1 uM, PBMC's from AD patients cultured overnight with Aβ, 2 hours incubation, qPCR, read-out: Relative Activity: relative ratio of Mgat3 transcription in AD/Mgat3 transcription in control cells): 1.5 to 2
relative Mgat3 ratios (Mgat3 transcription; repeat assays): 3-5 fold
expression of TLR2, TLR3 and TLR4 on monocytes [2]: increased expression
effect on Aβ phagocytosis/uptake by AD macrophages ([3]; in vitro treatment during Aβ phagocytosis, fluorescence/confocal microscopy, listed as bisdemethoxycurcumin): enhanced the phagocytosis of Aβ by macrophages of AD patients; also recorded: considerable activity
concentration that optimally stimulated phagocytosis ([3]; isolated and chemically synthesized material, compared with curcumin): 0.1 µM
